Measurements: patent publication US20240174675A1, “SMALL MOLECULE REGULATORS OF ALVEOLAR TYPE 2 CELL PROLIFERATION FOR THE TREATMENT OF PULMONARY DISEASES” (THE SCRIPPS RESEARCH INSTITUTE, priority 2021, published 2024)
“Also recorded” adds a separate entry of the source.

Experiments:
Human DPP4 = target: T1, Human DPP4 (Homo sapiens, UniProt P27487); assay: DPP4 activity assay (DPP4 Activity Assay Kit, fluorescent substrate); assay type: biochemical; details: Human DPP4; read-out: DPP4 inhibition IC50 [nM])
T1 construct: purchased Sigma-Aldrich MAK088
Method: DPP4 activity assay. Human DPP4 activity assay data were obtained using a DPP4 Activity Assay Kit (Sigma-Aldrich, MAK088) according to the manufacturer's instructions. Briefly, 10 μL of DPP4 Assay Buffer were transferred per well in low volume 384-well plates before transferring 10 μL of test compound dissolved in DPP4 assay buffer. To each well was added 5 μL of Master Reaction Mix containing a fluorescent substrate that becomes fluorescent upon cleavage by the enzyme. Fluorescence intensity measurements were recorded at 1-minute time intervals over the course of 20 minutes using an Envision Multimode Plate Reader (PerkinElmer).

[1] = Pharmacokinetic profiling, plasma and lung levels after intratracheal or inhalation delivery in the mouse; assay type: in vivo; details: for Kp: read-out: AUC ratio; for AUC(0-t): read-out: AUC0-24; for MRT inf: read-out: MRT0-inf
[2] = Pharmacokinetic profiling, plasma and lung levels after intratracheal delivery in the rat; assay type: in vivo; details: Male, Sprague Dawley strain, 2 mg/kg, 1 mg/ml in PBS; for MRT inf: read-out: MRT0-inf
Method: To assess the time course of the plasma and lung exposure of compounds disclosed herein, rodents were dosed IT with an exemplary compound of the present disclosure. The plasma and lung samples were taken at different time points. The drug levels were measured by LCMS.

[3] = tested on: LPS induced acute lung injury in mice; assay: LPS-induced acute lung injury (ALI) model; assay type: in vivo, C57BL/6J mice; details: mouse ALI model; every other day via intratracheal administration
Method: LPS from E. coli […] (Sigma) was used to induce acute lung injury in mice. Body weight matched (19 gram-22 gram) female C57BL/6J mice at 9-11 weeks of age were selected to use in ALI model.
(§1) For oral delivery, DPP4 inhibitors were dissolved in PBS resulting in clear solution. Vehicle control or DPP4 inhibitors were dosed at 10 ml/kg through oral gavage once or twice a day selected based on PK profile. For intratracheally delivered DPP4 inhibitors, compounds were dissolved in PBS resulting in clear solution. Vehicle control or DPP4 inhibitors were dosed at 2 ml/kg through a 22 g flexible catheter every other day.
LPS (1.5 mg/kg for testing orally delivered DPP4 inhibitors and 1.2 mg/kg for testing intratracheally delivered DPP4 inhibitors) or PBS in sham group was intratracheally injection into mice lung at day 0. DPP4 inhibitors or vehicle control were given to mice starting from one day before LPS injection (day −1).
All animals were sacrificed at day 3.5 after LPS injection. Bronchoalveolar lavage fluid (BALF) was retrieved using standard method. 1 ml 4% formalin was used to inflate the lung, which was subsequently fixed in 4% formalin for 24 hours and preserved in 70% EtOH until histological process.
For readouts, total protein content in BALF was quantified using BCA assay; pulmonary inflammation and damage were assessed using H & E staining.

[4] = tested on: bleomycin induced lung fibrosis in mice; assay: Bleomycin induced lung fibrosis model; assay type: in vivo, C57BL/6J mice; details: for efficacy in combination with Nintedanib: Compound 46 0.5 mg/kg IT, E4D, Bliss independence, BALF protein content and Ashcroft scoring (FIG. 4)
Method: Bleomycin (Hospira) was used to induce lung fibrosis in mice. Body weight matched (24 gram˜28 gram) male C57BL/6J mice at 10-12 weeks of age were selected to use in bleomycin model.
as §1, with “four days.” for “other day.”
0.5 U/kg Bleomycin or PBS in sham group was intratracheally injected into mice lung at day 0. DPP4 inhibitors or vehicle control were given to mice starting from one day before bleomycin injection (day −1).
All animals were sacrificed at day 20 after bleomycin injection. Bronchoalveolar lavage fluid (BALF) was retrieved using standard method. 1 ml 4% formalin was used to inflate the lung, which was subsequently fixed in 4% formalin for 24 hours and preserved in […] until histological process.
For readouts, body weight was measured every day; total protein content in BALF was quantified using BCA assay; pulmonary fibrosis was assessed using Masson's trichrome staining.

AEC2s = assay: Single cell RNA-sequencing from the lungs of mice (proliferating cell types); assay type: in vivo; details: mouse lung, 0.5 mg/kg IT; for cell types proliferative in response to treatment: animals sacrificed 2 and 4 days after dosing (FIG. 5)
Method: Single cell RNA-sequencing from the lungs of mice was performed to understand which cell types are proliferative in response to compound 46 treatment.

[5] = Mouse, Male, CD-1 strain, Intratracheal, 2 mg/kg, 1 mg/ml in PBS, Lung
[6] = Mouse, Male, CD-1 strain, Intratracheal, 2 mg/kg, 1 mg/ml in PBS, Plasma
[7] = inhaled or intranasal, Mouse, Male, CD-1 strain, Inhalation, 10 mg/ml in PBS for 15 mins, Lung
[8] = inhaled or intranasal, Mouse, Male, CD-1 strain, Inhalation, 10 mg/ml in PBS for 15 mins, Plasma
[9] = inhaled or intranasal, Mouse, Male, CD-1 strain, Intratracheal, 2 mg/kg, 1 mg/ml in PBS, Lung
[10] = inhaled or intranasal, Mouse, Male, CD-1 strain, Intratracheal, 2 mg/kg, 1 mg/ml in PBS, Plasma
[11] = mouse, IT dosing at 2 mg/kg (FIG. 2)

T1 sequence (P27487 whole entry): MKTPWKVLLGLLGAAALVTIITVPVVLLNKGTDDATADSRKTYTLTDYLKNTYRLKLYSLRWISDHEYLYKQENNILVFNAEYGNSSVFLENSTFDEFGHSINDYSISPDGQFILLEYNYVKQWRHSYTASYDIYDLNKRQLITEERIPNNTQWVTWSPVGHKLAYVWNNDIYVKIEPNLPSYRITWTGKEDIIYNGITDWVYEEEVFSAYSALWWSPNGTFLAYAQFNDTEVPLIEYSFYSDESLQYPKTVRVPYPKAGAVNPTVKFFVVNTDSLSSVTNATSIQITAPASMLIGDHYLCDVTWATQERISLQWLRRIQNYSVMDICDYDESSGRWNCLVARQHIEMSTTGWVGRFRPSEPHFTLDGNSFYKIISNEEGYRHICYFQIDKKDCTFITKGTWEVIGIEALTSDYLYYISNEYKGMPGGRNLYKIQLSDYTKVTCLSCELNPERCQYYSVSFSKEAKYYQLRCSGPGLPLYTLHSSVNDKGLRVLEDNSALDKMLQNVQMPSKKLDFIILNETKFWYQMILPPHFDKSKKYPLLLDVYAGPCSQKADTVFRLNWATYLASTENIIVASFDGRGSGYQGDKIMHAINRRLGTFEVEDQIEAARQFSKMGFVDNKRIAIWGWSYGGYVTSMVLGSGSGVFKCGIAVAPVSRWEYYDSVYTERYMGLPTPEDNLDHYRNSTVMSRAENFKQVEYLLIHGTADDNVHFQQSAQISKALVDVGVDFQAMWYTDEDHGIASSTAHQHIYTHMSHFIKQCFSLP

IC50 (Human DPP4): 0.15 nM
AUC0-inf ([1]; Mouse, Male, CD-1 strain, Inhalation, 10 mg/ml in PBS for 15 mins, Lung): 509,951 ng · h/g
AUC ratio ([1]; Mouse, Male, CD-1 strain, Inhalation, 10 mg/ml in PBS for 15 mins, Plasma): 1
AUC0-24 [1, 5]: 258,902 ng · h/g
AUC0-inf [1, 5]: 1,082,408 ng · h/g
Tmax [1, 5]: 0.25 h
Kp [1, 5]: 1350
AUC ratio [1, 6]: 1
AUC(0-t) [1, 6]: 0.728 µg·h/mL
AUC0-inf ([1]; Mouse, Male, CD-1 strain, Intratracheal, 2 mg/kg, 1 mg/ml in PBS, Plasma, read-out: AUC0-inf): 0.729 µg·h/mL
MRT inf [1, 6]: 1.88 h
Cmax [1, 7]: 20900 ng/g
Tmax [1, 7]: 0.25 h
Kp [1, 7]: 9240
Cmax [1, 8]: 0.0359 µg/mL
Tmax [1, 8]: 0.5 h
half-life [1, 8]: 1.5 h
AUC(0-t) [1, 8]: 0.0534 µg·h/mL
AUC0-inf ([1]; inhaled or intranasal, Mouse, Male, CD-1 strain, Inhalation, 10 mg/ml in PBS for 15 mins, Plasma, read-out: AUC0-inf): 0.0552 µg·h/mL
MRT inf [1, 8]: 1.69 h
Cmax [1, 9]: 24600 ng/g
half-life [1, 9]: 54.1 h
MRT inf [1, 9]: 80.6 h
Cmax [1, 10]: 0.435 µg/mL
Tmax [1, 10]: 0.25 h
half-life [1, 10]: 1.28 h
time retained in the lung [1, 11]: 7 days
AUC0-24 ([2]; Lung): 658004 ng·h/g
AUC0-inf ([2]; Lung): 4738852 ng·h/g
AUC ratio ([2]; Plasma): 1
Cmax ([2]; inhaled or intranasal, Lung): 41400 ng/g
Tmax ([2]; inhaled or intranasal, Lung): 0.25 h
half-life ([2]; inhaled or intranasal, Lung): 119 h
Kp ([2]; inhaled or intranasal, Lung, read-out: AUC ratio): 145
MRT inf ([2]; inhaled or intranasal, Lung): 186 h
Cmax ([2]; inhaled or intranasal, Plasma): 14.7 µg/mL
Tmax ([2]; inhaled or intranasal, Plasma): 0.25 h
half-life ([2]; inhaled or intranasal, Plasma): 68.8 h
AUC(0-t) ([2]; inhaled or intranasal, Plasma, read-out: AUC0-24): 18 µg·h/mL
AUC0-inf ([2]; inhaled or intranasal, Plasma, read-out: AUC0-inf): 18.6 µg·h/mL
MRT inf ([2]; inhaled or intranasal, Plasma): 6 h
SMILES: CCCCCCN(Cc1cn(CCOCCOCCOC(=O)c2nc(C(F)(F)F)n3c2CN(C(=O)C[C@H](N)Cc2cc(F)c(F)cc2F)CC3)nn1)C[C@H](O)[C@@H](O)[C@H](O)[C@H](O)CO [Compound 46, 2-(2-(2-(4-((hexyl(2,3,4,5,6-pentahydroxyhexyl)amino)methyl)-1H-1,2,3-triazol-1-yl)ethoxy)ethoxy)ethyl 7-((R)-3-amino-4-(2,4,5-trifluorophenyl)butanoyl)-3-(trifluoromethyl)-5,6,7,8-tetrahydroimidazo[1,5-a]pyrazine-1-carboxylate]
plasma and lung exposure profiles compared to retagliptin [1, 11]: significantly higher plasma and lung exposure profiles compared to retagliptin
minimal efficacious dose [3]: 0.02 mg/kg
efficacy in combination with Nintedanib ([4]; bleomycin model, listed as Compound 46, 0.5 mg/kg): synergistic efficacy
efficacy in combination with Nintedanib ([4]; bleomycin model, listed as compound 46, 0.5 mg/kg): impressive and synergistic efficacy
minimal efficacious dose ([4]; bleomycin model, every four-day intratracheal dosing regime): 0.5 mg/kg
efficacy in the bleomycin induced pulmonary fibrosis model ([4]; mouse, intratracheally 0.5 mg/kg every four days, body weight, BALF protein, fibrotic area, modified Ashcroft scores (FIG. 3)): displayed efficacy; also recorded: rescue of key metrics including body weight, BALF protein content, fibrotic area, and histological scoring
accumulation of AEC2s after treatment (AEC2s; 2 and 4 days after dosing): time-dependent accumulation of AEC2s
cell types proliferative in response to treatment (AEC2s; listed as Compound 46, 0.5 mg/kg): selectively expanded AEC2s
cell types proliferative in response to treatment (AEC2s; listed as compound 46, 0.5 mg/kg): only cycling and transitional AEC2s were induced to proliferate
